The results in this text go back to US20260098008A1, “COVALENT, CHEMOGENETIC ACTIVATORS FOR K2P POTASSIUM CHANNELS AND USES THEREOF” (THE REGENTS OF THE UNIVERSITY OF CALIFORNIA, priority 2022, published 2026).

The target of data set [1] is T1, G171F TREK-1^CG* (Mus musculus, UniProt P97438, G186F/S146C).
T1 construct: expressed in transfected cells; host or cells: Xenopus laevis oocytes injected with mRNA
T1 sequence (P97438 1-411 isoform P97438-2 S131C/G171F): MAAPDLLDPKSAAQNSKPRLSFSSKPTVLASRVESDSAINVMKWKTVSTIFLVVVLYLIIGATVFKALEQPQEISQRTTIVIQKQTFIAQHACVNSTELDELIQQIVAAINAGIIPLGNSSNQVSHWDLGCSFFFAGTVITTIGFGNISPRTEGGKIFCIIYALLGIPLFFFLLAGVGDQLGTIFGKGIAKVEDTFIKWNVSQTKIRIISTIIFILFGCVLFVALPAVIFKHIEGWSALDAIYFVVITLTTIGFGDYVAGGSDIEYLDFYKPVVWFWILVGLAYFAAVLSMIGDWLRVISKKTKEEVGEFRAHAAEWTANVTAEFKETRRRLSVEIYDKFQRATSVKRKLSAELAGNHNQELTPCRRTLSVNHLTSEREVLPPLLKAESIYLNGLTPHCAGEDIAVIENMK
Put plainly: TEVC in Xenopus oocytes, attenuated channels. The format is cell-based. As to conditions: 20 μM; sequential addition of ML335, CAT335, BL-1249; 0 mV. The source says:
Mouse K2P2.1 (TREK-1) (Genbank accession number: NP_034737.2), mouse K2P10.1 (TREK-2) (NM_001316665.1), mouse K2P4.1 (TRAAK) (NM_008431.3), human K2P4.1 (TRAAK) (NM_033310.2) and mouse K2P18.1(TRESK) (NM_207261.3) were used for this study. Point mutations were introduced by site-directed mutagenesis using custom primers and confirmed by sequencing before use. For studies using Xenopus oocytes, K2P channels were subcloned into a previously reported pGEMHE/pMO vector (46). For expression in HEK293 cells, mouse K2P2.1 (TREK-1) and mutants were expressed from a previously described pIRES2-EGFP vector in HEK293 cells (46,47). K2P2.1 (TREK-1) tandems were constructed by connecting the open reading frames for the individual subunits with a linker encoding the […] (SEQ ID NO: 19) sequence. Tandems used for HEK293 cells included an N-terminal HA tag ([…] (SEQ ID NO: 20)) on the first subunit.
Xenopus laevis oocytes were harvested according to UCSF IACUC Protocol AN129690 and digested using collagenase (Worthington Biochemical Corporation, #LS004183, 0.8-1.0 mg/mL) in Ca^21-free ND96 (96 mM NaCl, 2 mM KCl, 3.8 mM MgCl2, 5 mM HEPES pH 7.4) immediately post-harvest, as previously reported (31,33). Oocytes were maintained at 18° C. in ND96 (96 mM NaCl, 2 mM KCl, 1.8 mM CaCl2, 2 mM MgCl2, 5 mM HEPES pH 7.4) supplemented with antibiotics (100 units mL^−1 penicillin, 100 μg mL^−1 streptomycin, 50 μg mL^−1 gentimycin) and used for experiments within one week of harvest.
Defolliculated stage V-VI oocytes were microinjected with 0.5-36 ng mRNA and currents were recorded within 16-48 h hours of injection.
For recordings, oocytes were impaled with borosilicate recording microelectrodes (0.4-2.0 MΩ resistance) backfilled with 3 M KCl and were subjected to constant perfusion of ND96 at a rate of 3 ml min^−1. Recording solutions containing K2P activators were prepared immediately prior to use from DMSO stocks (20-100 mM), with final DMSO concentrations of 0.1%. Currents were evoked from a −80 mV holding potential followed by a 300 ms ramp from −150 mV to +50 mV. Data were recorded using a GeneClamp 500B amplifier (MDS Analytical Technologies) controlled by pCLAMP8 software (Molecular Devices), and digitized at 1 kHz using Digidata 1332 Å digitizer (MDS Analytical Technologies). For each recording, control solution (ND96) was perfused over a single oocyte until current was stable before switching to solutions containing the test compounds at various concentrations. Representative traces and dose response plots were generated in GraphPad Prism 9.

Data set [2] deals with HEK293 cells (no exogenous K2P expression). The data set is described as follows: Resting membrane potential, current-clamp (I=0) in control HEK293 cells. The format is cell-based. The following applies: 20 μM CAT335. As to the method:
50% confluent cells were co-transfected (in 35-mm diameter wells) with 10-100 ng of the K2P2.1 plasmid and 400 ng of an eGFP plasmid (for visualization) using LipofectAMINE 2000 (Invitrogen) for 24 h, after which the cells were either plated onto coverslips or the media exchanged with fresh media. Cells were plated onto Matrigel coated coverslips (BD Biosciences) 1-2 hours before experiments.
Whole-cell patch-clamp experiments with K2P2.1(TREK-1) and mutants were carried out 24-48 h after transfection. Acquisition and analysis for voltage-clamp experiments were performed using pCLAMP10 and an Axopatch 200B amplifier (Molecular Devices). Current-clamp experiments were acquired using an […] amplifier (Molecular Devices). Pipettes were pulled using a Flaming/Brown micropipette puller (P-97, Sutter Instruments) and flame-polished using a MF-830 microforge (Narishige). Electrode resistance after filling with pipette internal solution ranged from 2 to 5 MΩ. Currents were low-pass filtered at 2 kHz and sampled at 10 kHz. Pipette solution contained the following: 145 mM KCl, 3 mM MgCl2, 5 mM EGTA and 20 mM HEPES (pH 7.2 with KOH). Bath solution contained the following: 145 mM NaCl, 5 mM KCl, 1 mM CaCl2, 3 mM MgCl2 and 20 mM HEPES (pH 7.4 with NaOH). […] Data were analyzed using Clampfit 11 and GraphPad Prism 9.

Data set [3] in a line: Solubility in aqueous solutions (crystallization sample preparation). The format is physicochemical. As to the method: K2P2.1cryst ML335 and ML402 complex crystals grew in the same conditions as K2P2.1cyst, but the protein was incubated for at least 1 h with 2.5 mM of activator before setting the crystal plates. […] Then each compound was diluted 1:100 in SEC buffer to 5 mM concentration, giving a milky solution. This solution was mixed 1:1 to K2P2.1cryst previously concentrated to 12 mg ml^−1. […] The samples were briefly centrifuged in a table-top centrifuge (10,000 g) to remove any insoluble material before setting the crystal plates.

With `c1ccc(-c2nn[nH]n2)c(Nc2cccc3c2CCCC3)c1` [BL-1249, reference compound], in data set [1], the “Fold-activation (I activator/I control)” value is recorded as 62+3 fold.

For `O=C(NCc1ccc(Cl)cc1Cl)c1ccc(N2C(=O)C=CC2=O)cc1` [CAT335], the “Change of resting membrane potential (ΔRMP)” value in data set [2] is “+7 mV”. The “Fold-activation (I activator/I control)” value in data set [1] was found to be 7.8±1.2 fold. For `CS(=O)(=O)Nc1ccc(C(=O)NCc2ccc(Cl)cc2Cl)cc1` [ML335, reference compound], in data set [3], the “Solubility in aqueous solutions” value is listed as “insoluble in aqueous solutions”.
